molecular target: T1, human PLC-β2 (Homo sapiens, UniProt Q00722); test: PLC assay using FlashPlates (96-well, immobilized [3H]PIP2 substrate); assay type: biochemical; conditions: purified recombinant human PLC-β2 or cytosolic human PLC-β2; hydrolysis of [3H]PIP2
T1 construct: made in house; host or cells: Sf9 cells (Spodoptera frugiperda), recombinant baculovirus
Excerpt: The hydrolysis of phosphatidylinositol-4,5-bisphosphate (PIP2) by a specific phospholipase C-β2 (PLC-β2) produces two intracellular messengers, diacylglycerol (DAG) and inositol 1,4,5-trisphosphate (IP3), which mediate the activation of protein kinase C and intracellular Ca^2+ release. A conventional organic solvent extraction method is widely used for PLC assays to isolate IP3 from the substrate PIP2. The conventional PLC-β2 assay, however is terminated by addition of acidified organic solvents and subsequent extraction and phase separation. […] Accordingly, a preferred method to test the compounds of the present invention, was developed utilizing a 96-well plate assay for PLC-β2 using immobilized radiolabeled substrate to quantitatively measure the reduction in the substrate level without a need for organic solvent extraction. The automated PLC-β2 assay described herein provides a convenient method for quantitative measurement of phospholipase C activities in a high throughput fashion. Ninety-six well Phospholipid FlashPlates were coated with 0.2 mL of 50 mM Tris/HCl (pH 7.4), 0.01% Ac-BSA and 50,000 cpm of […] (phosphatidylinositol-4,5-bisphosphate) at 4° C. for 72 h. The wells were aspirated and washed twice with PBS. The reactions were conducted directly in the wells in PLC reaction buffer containing 50 mM Tris/HCl (pH 7.2), 2.75 mM EDTA (pH 7.3), 80 mM KCl, 10 mM LiCl, 0.04% DOC and 2 mM CaCl2 in the absence or presence of the purified recombinant human PLC-β2 (prepared as described hereafter) or cytosolic human PLC-β2 from […]. Reduction of radioactivity was monitored by a Packard TopCount instrument (Packard Instrument Company, Conn., USA). […] The cells were grown in Grace's media supplemented with 10% (v/v) fetal bovine serum, 3.3 g/l yeastolate, 3.3 g/l lactalbumin hydrosylate, glutamine (6.4 mM final), 50 μg/ml gentamicin, and 50 μg/ml kanamycin. Suspension of Sf9 cells (1.0×10^6 cells/ml) were infected with 5 pfu/cell of recombinant baculovirus encoding PLC-β2 and incubated at 27° C. for 72 h. The cells were collected by centrifugation (500×g, 7 min, 4° C.) and disrupted by hypotonic lysis buffer containing 20 mM Tris/HCl, pH 7.4, 5 mM MgCl2, 2 mM EGTA, 200 μM PMSF, 200 μM benzamidine and 1 μM pepstatin A. The lysate was sonicated on ice and the nuclei and unbroken cells removed by centrifigation (500×g, 5 min, 4C.). The supernatant was recovered and clarified by centrifugation (34,000 rpm, 60 min, 4C.). The supernatant was used as a crude cytosolic fraction (Paterson, A., Boyer, J. L., Watts, V. J., Morris, A. J., Price, […]. (1995) Concentration of enzyme-dependent activation of PLC β1 and PLC β2 by Gα11 and βγ subunits. Cellular Signalling 7, 709-720). Crude cytosol prepared from Sf9 cells expressing PLC-β2 was purified initially by chromatography on a 10 ml column of Q-Sepharose FF, equilibrated in buffer A (25 mM HEPES, pH 7.2,2 mM DTT, 2 mM EDTA, 2 mM EGTA, 200 μM PMSF, 200 μM benzamidine, 1 μM pepstatin A containing 10 mM NaCl). The column was washed with 20 ml of equilibration buffer and eluted with a 200-ml gradient of 110-410 mM NaCl in buffer A. The fractions containing PLC activity were pooled and diluted with buffer A. The diluted enzyme was applied to a 4 ml column of heparin-SepharoseCL-6B equilibrated in buffer A and the column washed with 70 ml of buffer A. The column was eluted with 80 ml of gradient of 0-1.0 M NaCl in buffer A, the column eluate collected in 3 ml fractions. […]

T1 sequence (Q00722 whole entry): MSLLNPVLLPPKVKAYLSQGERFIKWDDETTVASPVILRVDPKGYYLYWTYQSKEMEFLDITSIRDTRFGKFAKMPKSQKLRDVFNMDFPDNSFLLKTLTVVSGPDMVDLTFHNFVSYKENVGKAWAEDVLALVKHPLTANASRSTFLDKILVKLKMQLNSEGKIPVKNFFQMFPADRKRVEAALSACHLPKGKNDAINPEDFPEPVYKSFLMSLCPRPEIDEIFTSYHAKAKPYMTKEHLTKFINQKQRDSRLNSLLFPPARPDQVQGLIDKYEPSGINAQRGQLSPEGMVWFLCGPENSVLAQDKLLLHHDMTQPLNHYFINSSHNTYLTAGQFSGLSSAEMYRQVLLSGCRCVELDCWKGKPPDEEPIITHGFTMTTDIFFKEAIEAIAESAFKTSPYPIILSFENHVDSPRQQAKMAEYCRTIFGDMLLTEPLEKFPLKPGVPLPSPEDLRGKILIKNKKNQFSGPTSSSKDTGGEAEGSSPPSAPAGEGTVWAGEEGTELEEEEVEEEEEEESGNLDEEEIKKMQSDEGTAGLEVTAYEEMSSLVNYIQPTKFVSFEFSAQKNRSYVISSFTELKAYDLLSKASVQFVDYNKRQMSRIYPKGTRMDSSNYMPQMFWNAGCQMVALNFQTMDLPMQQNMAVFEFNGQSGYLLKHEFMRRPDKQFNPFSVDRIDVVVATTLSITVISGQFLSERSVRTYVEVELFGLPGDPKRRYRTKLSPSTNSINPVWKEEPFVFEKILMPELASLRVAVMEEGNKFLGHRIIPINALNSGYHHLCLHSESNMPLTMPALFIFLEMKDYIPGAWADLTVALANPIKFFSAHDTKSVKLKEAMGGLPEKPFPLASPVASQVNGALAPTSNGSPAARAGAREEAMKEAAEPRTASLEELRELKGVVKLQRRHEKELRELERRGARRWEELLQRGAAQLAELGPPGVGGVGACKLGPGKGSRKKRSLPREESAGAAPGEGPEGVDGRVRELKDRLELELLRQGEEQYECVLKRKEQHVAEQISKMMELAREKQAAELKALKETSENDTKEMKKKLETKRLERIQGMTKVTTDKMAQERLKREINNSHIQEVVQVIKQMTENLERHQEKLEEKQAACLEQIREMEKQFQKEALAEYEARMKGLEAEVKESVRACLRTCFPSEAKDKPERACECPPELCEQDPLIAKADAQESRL

| Structure (SMILES) | IC50 [µM] |
| --- | --- |
| NC(=O)c1ccc(N2CCN(C(c3ccccc3)c3ccccc3)CC2)c(NC(=O)Nc2ccccc2)c1 [Cpd 8, 4-[4-(diphenylmethyl)-1-piperazinyl]-3-[[(phenylamino)carbonyl]amino]-benzamide] | 1.2 |
| CN(C)c1ccc(NC(=O)Nc2cc(C(N)=O)ccc2N2CCN(C(c3ccc(F)cc3)c3ccc(F)cc3)CC2)cc1 [Cpd 19, 4-[4-[bis(4-fluorophenyl)methyl]-1-piperazinyl]-3-[[[[4-(dimethylamino)phenyl]amino]carbonyl]amino]-benzamide] | 2.9 |
| CC(c1ccccc1)N1CCN(c2ccc(C(=O)N3CCNCC3)cc2NC(=O)Nc2ccccc2)CC1 (centres unmarked) [Cpd 48, N-phenyl-N′-[2-[4-(1-phenylethyl)-1-piperazinyl]-5-(1-piperazinylcarbonyl)phenyl]-urea] | > 25 |
| NC(=O)c1ccc(N2CCN(C(c3ccc(F)cc3)c3ccc(F)cc3)CC2)c(NC(=O)Nc2ccc3c(c2)OCO3)c1 [Cpd 14, 3-[[(1,3-benzodioxol-5-ylamino)carbonyl]amino]-4-[4-[bis(4-fluorophenyl)methyl]-1-piperazinyl]-benzamide] | 3.1 |
| CCCCNC(=O)Nc1cc(C(=O)N2CCNCC2)ccc1N1CCN(C(c2ccccc2)c2ccccc2)CC1 [Cpd 56, N-butyl-N′-[2-[4-(diphenylmethyl)-1-piperazinyl]-5-(1-piperazinylcarbonyl)phenyl]-urea] | > 25 |
| NC(=O)c1ccc(N2CCCN(C(c3ccncc3)c3ccc(F)cc3)CC2)c(NC(=O)NC2CCCCC2)c1 (centres unmarked) [Cpd 80, 3-[[(cyclohexylamino)carbonyl]amino]-4-[4-[(4-fluorophenyl)-4-pyridinylmethyl]hexahydro-1H-1,4-diazepin-1-yl]-benzamide] | > 10 |
| O=C(Nc1cc(C(=O)N2CCCNCC2)ccc1N1CCN(C(c2ccccc2)c2ccccc2)CC1)NC1CCCCC1 [Cpd 25, N-cyclohexyl-N′-[2-[4-(diphenylmethyl)-1-piperazinyl]-5-[(hexahydro-1H-1,4-diazepin-1-yl)carbonyl]-phenyl]urea] | 2.6 |
| CN(C)CCNC(=O)c1ccc(N2CCN(C(c3ccccc3)c3ccccc3)CC2)c(NC(=O)NC2CCCCC2)c1 [Cpd 30, 3-[[(cyclohexylamino)carbonyl]amino]-N-[2-(dimethylamino)ethyl]-4-[4-(diphenylmethyl)-1-piperazinyl]-benzamide] | 9.8 |
| NC(=O)c1ccc(N2CCN(Cc3ccccc3)CC2)c(NC(=O)Nc2ccccc2)c1 [Cpd 2, 3-[[(phenylamino)carbonyl]amino]-4-[4-(phenylmethyl)-1-piperazinyl]-benzamide] | > 25 |
| CC(c1ccccc1)N1CCN(c2ccc(C(=O)N3CCNCC3)cc2NC(=O)NC2CCCCC2)CC1 (centres unmarked) [Cpd 53, N-cyclohexyl-N′-[2-[4-(1-phenylethyl)-1-piperazinyl]-5-(1-piperazinylcarbonyl)phenyl]-urea] | > 25 |
| CN(C)c1ccc(NC(=O)Nc2cc(C(=O)N3CCNCC3)ccc2N2CCN(C(c3ccccc3)c3ccccc3)CC2)cc1 [Cpd 58, N-[4-(dimethylamino)phenyl]-N′-[2-[4-(diphenylmethyl)-1-piperazinyl]-5-(1-piperazinylcarbonyl)phenyl]-urea] | 7.8 |
| CN(C)CCNC(=O)c1ccc(N2CCN(C(c3ccccc3)c3ccccc3)CC2)c(NC(=O)Nc2ccccc2)c1 [Cpd 29, N-[2-(dimethylamino)ethyl]-4-[4-(diphenylmethyl)-1-piperazinyl]-3-[[(phenylamino)carbonyl]amino]-benzamide] | 3.3 |
| O=C(Nc1ccccc1)Nc1cc(C(=O)N2CCNCC2)ccc1N1CCN(C2CCCCC2)CC1 [Cpd 51, N-[2-(4-cyclohexyl-1-piperazinyl)-5-(1-piperazinylcarbonyl)phenyl]-N′-phenylurea] | > 25 |
| O=C(Nc1ccccc1)Nc1cc(C(=O)N2CCNCC2)ccc1N1CCN(C(c2ccccc2)c2ccc(Cl)cc2)CC1 (centres unmarked) [Cpd 60, N-[2-[4-[(4-chlorophenyl)phenylmethyl]-1-piperazinyl]-5-(1-piperazinylcarbonyl)phenyl]-N′-phenyl-urea] | 0.95 |
| NCCNC(=O)c1ccc(N2CCN(C(c3ccccc3)c3ccccc3)CC2)c(NC(=O)Nc2ccccc2)c1 [Cpd 26, N-(2-aminoethyl)-4-[4-(diphenylmethyl)-1-piperazinyl]-3-[[(phenylamino)carbonyl]amino]-benzamide] | 1.9 |
| CN1CCCN(C(=O)c2ccc(N3CCN(C(c4ccccc4)c4ccccc4)CC3)c(NC(=O)NC3CCCCC3)c2)CC1 [Cpd 31, N-cyclohexyl-N′-[2-[4-(diphenylmethyl)-1-piperazinyl]-5-[(hexahydro-4-methyl-1H-1,4-diazepin-1-yl)carbonyl]phenyl]-urea] | 6.6 |
| CC(NC(=O)Nc1cc(C(N)=O)ccc1N1CCN(C(c2ccc(F)cc2)c2ccc(F)cc2)CC1)c1ccccc1 (centres unmarked) [Cpd 16, 4-[4-[bis(4-fluorophenyl)methyl]-1-piperazinyl]-3-[[[(1-phenylethyl)amino]carbonyl]amino]-benzamide] | 6 |
| Cc1cc(C)cc(NC(=O)Nc2cc(C(=O)N3CCNCC3)ccc2N2CCN(C(c3ccccc3)c3ccccc3)CC2)c1 [Cpd 42, N-(3,5-dimethylphenyl)-N′-[2-[4-(diphenylmethyl)-1-piperazinyl]-5-(1-piperazinylcarbonyl)phenyl]-urea] | 5.6 |
| CCCCNC(=O)Nc1cc(C(N)=O)ccc1N1CCN(C(c2ccccc2)c2ccccc2)CC1 [Cpd 12, 3-[[(butylamino)carbonyl]amino]-4-[4-(diphenylmethyl)-1-piperazinyl]-benzamide] | 14.5 |
| O=C(Nc1ccccc1)Nc1cc(C(=O)N2CCNCC2)ccc1N1CCN(C(c2ccc(F)cc2)c2ccc(F)cc2)CC1 [Cpd 46, N-[2-[4-[bis(4-fluorophenyl)methyl]-1-piperazinyl]-5-(1-piperazinylcarbonyl)phenyl]-N′-phenylurea] | 1.7 |
| CC(C)NC(=O)Nc1cc(C(=O)N2CCNCC2)ccc1N1CCN(C(c2ccccc2)c2ccccc2)CC1 [Cpd 66, N-[2-[4-(diphenylmethyl)-1-piperazinyl]-5-(1-piperazinylcarbonyl)phenyl]-N′-(1-methylethyl)urea] | > 25 |
| Cc1ccc(NC(=O)Nc2cc(C(=O)N3CCNCC3)ccc2N2CCN(C(c3ccccc3)c3ccccc3)CC2)c(C)c1 [Cpd 41, N-(2,4-dimethylphenyl)-N′-[2-[4-(diphenylmethyl)-1-piperazinyl]-5-(1-piperazinylcarbonyl)phenyl]-urea] | 1.6 |
| O=C(Nc1ccccc1)Nc1ccc(C(=O)N2CCNCC2)cc1N1CCN(C(c2ccc(F)cc2)c2ccc(F)cc2)CC1 [Cpd 90, N-[2-[4-[bis(4-fluorophenyl)methyl]-1-piperazinyl]-4-(1-piperazinylcarbonyl)phenyl]-N′-phenyl-urea] | 0.98 |
| COc1ccccc1N1CCN(c2ccc(C(=O)N3CCNCC3)cc2NC(=O)NC2CCCCC2)CC1 [Cpd 55, N-cyclohexyl-N′-[2-[4-(2-methoxyphenyl)-1-piperazinyl]-5-(1-piperazinylcarbonyl)phenyl]-urea] | > 25 |
| NC(=O)c1ccc(N2CCN(C(c3ccccc3)c3ccccc3)CC2)c(NC(=O)NCc2ccccc2)c1 [Cpd 6, 4-[4-(diphenylmethyl)-1-piperazinyl]-3-[[[(phenylmethyl)amino]carbonyl]amino]-benzamide] | 9 |
| NC(=O)c1ccc(NC(=O)Nc2ccccc2)c(N2CCN(C(c3ccccc3)c3ccccc3)CC2)c1 [Cpd 93, 3-[4-(diphenylmethyl)-1-piperazinyl]-4-[[(phenylamino)carbonyl]amino]-benzamide] | 1.8 |

— patent US20040235855A1, “Phospholipase C inhibitors for use in treating inflammatory disorders” (priority 2003, published 2004)
